System: methanogenesis
Experiment: In vivo effects upon methanogenesis in cattle
Details: for Methane Inhibition: 360 kg cattle, at least 7 days
Description: Cattle were fed 5 to 7 kg./day of a 70% concentrate ration which was medicated to supply 0 to 2 g. of dithiooxamide per animal daily. After feeding medicated rations for at least 7 days, gas samples were obtained by rumen puncture for chromatographic assay of methane.
^1 360 Kg. Cattle fed either 5, 6 or 7 kg./day.

## NC(=S)C(N)=S [Dithiooxamide, dithiooxamide]
1.0 g./day dithiooxamide in feed
  Methane Inhibition: 51
2.0 g./day dithiooxamide in feed
  Methane Inhibition: 85
.5 g./day dithiooxamide in feed
  Methane Inhibition: 25
Table V
  antimethanogenic activity (in words): verified the antimethanogenic activity

From patent US3949090A, “Methods and compositions for improving feed efficiency in ruminants using dithiooxamide” (SmithKline Corporation, priority 1974, dated 1976)
